Test results as given in patent publication US12540131B2 (Merck Sharp & Dohme LLC, priority 2019, dated 2026).

Target: GST tagged truncated human mutant G2019S LRRK2 (Homo sapiens (Human), UniProt Q5S007, G2019S)
Test: LRRK2 Km ATP LanthaScreen Assay
Assay type: biochemical
Details: G2019S LRRK2, 134 μM ATP (Km ATP), mean values; for IC50: read-out: LRRK2 pIC50 (converted)
Protocol: General Experimental Information: • Unless otherwise noted, all reactions are magnetically stirred. Unless otherwise noted, when diethyl ether is used in the experiments described below, it is Fisher ACS certified material and is stabilized with BHT. Unless otherwise noted, “concentrated” and/or “solvent removed under reduced pressure” means evaporating the solvent from a solution or mixture using a rotary evaporator or vacuum pump. Unless otherwise noted, flash chromatography is carried out on a Teledyne Isco (Lincoln, NE), Analogix (Burlington, WI), or Biotage (Stockholm, SWE) automated chromatography system using a commercially available cartridge as the column. Columns may be purchased from Teledyne Isco, Analogix, Biotage, Varian (Palo Alto, CA), or Supelco (Bellefonte, PA) and are usually filled with silica gel as the stationary phase. Reverse phase prep-HPLC conditions, where used, can be found at the end of each experimental section. Aqueous solutions were concentrated on a Genevac (Ipswich, ENG) or by freeze-drying/lyophilization. Unless otherwise noted, all LRRK2 pIC50 data presented in tables refers to the LRRK2 G2019S Km ATP LanthaScreen™ assay (Life Technologies Corp., Carlsbad, CA) that is described in the Biological Assay section.
The pIC50 values reported herein were measured as follows.
Biological Assay: LRRK2 Km ATP LanthaScreen™ Assay
Compound potency against LRRK2 kinase activity was determined using LanthaScreen™ technology from Life Technologies Corporation (Carlsbad, CA) using a GST20 tagged truncated human mutant G2019S LRRK2 in the presence of the fluorescein-labeled peptide substrate LRRKtide® (LRRK2 phosphorylated ezrin/radixin/moesin (ERM)), also from Life Technologies. The data presented for the Km ATP LanthaScreen™ Assay represents mean IC50 values based on several test results and may have reasonable deviations depending on the specific conditions and reagents used. Km is the Michaelis constant of an enzyme and is defined as the concentration of native substrate (ATP for a kinase) which permits the enzyme to achieve half Vmax (Vmax=rate of reaction when the enzyme is saturated with substrate). IC50 (half-maximal inhibitory concentration) represents the concentration of inhibitor required to inhibit LRRK2 kinase activity by 50%. Assays were performed in the presence of 134 μM ATP (Km ATP). Upon completion, the assay was stopped, and phosphorylated substrate detected with a terbium (Tb)-labeled anti-pERM antibody (cat. no. PV4898). The compound dose response was prepared by diluting a 10 mM stock of compound to a maximum concentration of 9.99 μM in 100% DMSO, followed by custom fold serial dilution in DMSO nine times. 20 nL of each dilution was spotted via a Labcyte Echo onto a 384-well black-sided plate (Corning 3575) followed by 15 μl of a 1.25 nM enzyme solution in 1× assay buffer (50 mM Tris pH 8.5, 10 mM MgCl2, 0.01% Brij-35, 1 mM EGTA, 2 mM dithiothreitol, 0.05 mM sodium orthovanadate). Following a 15-minute incubation period at RT, the kinase reaction was started with the addition of 5 μl of 400 nM fluorescein-labeled LRRKtide® (LRRK2 phosphorylated ezrin/radixin/moesin (ERM)) peptide substrate and 134 μM ATP solution in 1× assay buffer. The reaction was allowed to progress at ambient temperature for 90 minutes. The reaction was then stopped by the addition of 20 μl of TR-FRET Dilution Buffer (Life Technologies, Carlsbad, CA) containing 2 nM Tb-labeled anti-phospho LRRKtide® (LRRK2 phosphorylated ezrin/radixin/moesin (ERM)) antibody and 10 mM EDTA (Life Technologies, Carlsbad, CA). After an incubation period of 1 h at RT, the plate was read on an EnVision® multimode plate reader (Perkin Elmer, Waltham, MA) with an excitation wavelength of 337 nm (Laser) and a reading emission at both 520 and 495 nm. Compound IC50 values were interpolated from nonlinear regression best-fits of the log of the final compound concentration, plotted as a function of the 520/495-nm emission ratio using activity base “Abase”). […]

GST tagged truncated human mutant G2019S LRRK2, sequence (Q5S007 970-2527 G2019S): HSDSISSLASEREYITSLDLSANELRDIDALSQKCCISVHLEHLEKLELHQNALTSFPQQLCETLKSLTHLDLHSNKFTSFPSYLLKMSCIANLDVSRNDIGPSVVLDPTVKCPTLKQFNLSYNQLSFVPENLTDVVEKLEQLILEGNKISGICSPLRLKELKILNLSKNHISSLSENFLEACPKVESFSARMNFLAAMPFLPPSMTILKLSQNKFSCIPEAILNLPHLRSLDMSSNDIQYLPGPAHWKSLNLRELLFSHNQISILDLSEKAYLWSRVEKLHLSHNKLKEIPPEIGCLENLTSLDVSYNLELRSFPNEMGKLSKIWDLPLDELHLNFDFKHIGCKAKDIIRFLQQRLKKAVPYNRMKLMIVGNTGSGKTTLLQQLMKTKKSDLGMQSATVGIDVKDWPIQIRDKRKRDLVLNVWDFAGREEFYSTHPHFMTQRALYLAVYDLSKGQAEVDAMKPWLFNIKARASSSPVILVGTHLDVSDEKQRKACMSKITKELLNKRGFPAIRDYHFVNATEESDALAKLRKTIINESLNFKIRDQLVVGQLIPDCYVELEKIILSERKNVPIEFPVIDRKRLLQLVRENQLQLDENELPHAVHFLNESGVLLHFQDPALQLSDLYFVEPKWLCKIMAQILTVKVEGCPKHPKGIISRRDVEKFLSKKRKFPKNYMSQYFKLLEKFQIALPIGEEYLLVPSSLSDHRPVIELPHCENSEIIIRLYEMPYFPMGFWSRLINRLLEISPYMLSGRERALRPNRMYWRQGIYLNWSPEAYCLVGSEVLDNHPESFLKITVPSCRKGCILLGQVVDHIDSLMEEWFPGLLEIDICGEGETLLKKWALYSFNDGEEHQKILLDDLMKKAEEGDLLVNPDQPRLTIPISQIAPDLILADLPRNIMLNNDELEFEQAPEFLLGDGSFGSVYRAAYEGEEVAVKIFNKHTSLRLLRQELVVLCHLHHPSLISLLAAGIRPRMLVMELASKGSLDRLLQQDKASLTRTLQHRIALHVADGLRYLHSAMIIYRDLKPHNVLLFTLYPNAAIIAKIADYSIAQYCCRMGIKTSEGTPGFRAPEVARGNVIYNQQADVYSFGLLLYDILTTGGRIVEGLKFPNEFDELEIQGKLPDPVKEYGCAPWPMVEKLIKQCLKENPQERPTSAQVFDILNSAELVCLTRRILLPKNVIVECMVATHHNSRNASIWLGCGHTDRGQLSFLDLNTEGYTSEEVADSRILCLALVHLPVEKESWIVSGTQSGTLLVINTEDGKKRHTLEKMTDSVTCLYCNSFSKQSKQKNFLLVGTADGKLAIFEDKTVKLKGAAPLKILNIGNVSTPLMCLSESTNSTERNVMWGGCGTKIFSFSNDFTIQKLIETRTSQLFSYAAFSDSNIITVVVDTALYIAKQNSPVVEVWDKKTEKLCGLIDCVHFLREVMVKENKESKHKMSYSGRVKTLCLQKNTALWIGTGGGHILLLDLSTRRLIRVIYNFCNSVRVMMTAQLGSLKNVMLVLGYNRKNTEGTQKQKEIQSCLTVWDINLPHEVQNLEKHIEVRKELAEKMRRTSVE

Structure (SMILES) | IC50 [nM] | LRRK2 pIC50
CCN1CC[C@@H](c2cc3nc(Nc4cnn(CC(C)(C)O)c4Cl)ncc3cc2Cl)[C@H](F)C1 (single isomer, unassigned) [Ex-4.5, (3S,4S) or (3R,4R) 1-(5-chloro-4-((6-chloro-7-(1-ethyl-3-fluoropiperidin-4-yl)quinazolin-2-yl)amino)-1H-pyrazol-1-yl)-2-methylpropan-2-ol] | 1.62 | 
CN1CCC(c2cc3nc(Nc4cnn(C5(C)CC5)c4Cl)ncc3cc2Cl)CC1 [Ex-8.14, 6-chloro-N-[5-chloro-1-(1-methylcyclopropyl)-1H-pyrazol-4-yl]-7-(1-methylpiperidin-4-yl)quinazolin-2-amine] |  | >9.20
CC(C)(O)Cn1ncc(Nc2ncc3cc(Cl)c([C@@H]4CCN(C5COC5)C[C@H]4F)cc3n2)c1Cl (single isomer, unassigned) [Ex-4.43, (3S,4S) or (3R,4R) 1-[5-chloro-4-({6-chloro-7-[3-fluoro-1-(oxetan-3-yl)piperidin-4-yl]quinazolin-2-yl}amino)-1H-pyrazol-1-yl]-2-methylpropan-2-ol] |  | 9.16
Cc1c(Nc2ncc3cc(Cl)c(C4CCN(C5(C)CCCC5O)CC4)cc3n2)cnn1C1CC1 (single isomer, unassigned) [Ex-1.20, (1R,2S) or (1S,2R) or (1S,2S) or (1R,2R) 2-(4-(6-chloro-2-((1-cyclopropyl-5-methyl-1H-pyrazol-4-yl)amino)quinazolin-7-yl)piperidin-1-yl)-2-methylcyclopentan-1-ol] |  | 8.84
Cc1c(Nc2ncc3cc(Cl)c(C4CCN(C5COC5)CC4)cc3n2)cnn1C1CC1(F)F (single isomer, unassigned) [Ex-2.73, (S) or (R) 6-chloro-N-[1-(2,2-difluorocyclopropyl)-5-methyl-1H-pyrazol-4-yl]-7-[1-(oxetan-3-yl)piperidin-4-yl]quinazolin-2-amine] | 0.955 | 
COC(C)(C)Cn1ncc(Nc2ncc3cc(Cl)c(C4CCN(C5COC5)CC4)cc3n2)c1C [Ex-2.14, 6-chloro-N-[1-(2-methoxy-2-methylpropyl)-5-methyl-1H-pyrazol-4-yl]-7-[1-(oxetan-3-yl)piperidin-4-yl]quinazolin-2-amine] |  | 9.17
C[C@]1(N2CCC(c3cc4nc(Nc5cnn(C67CC(C6)C7)c5)ncc4cc3Cl)CC2)COC[C@H]1O (single isomer, unassigned) [Ex-2.35, (3S,4S) or (3R,4R) 4-[4-(2-{[1-(bicyclo[1.1.1]pentan-1-yl)-1H-pyrazol-4-yl]amino}-6-chloroquinazolin-7-yl)piperidin-1-yl]-4-methyloxolan-3-ol] | 3.89 | 
Cn1ncc(Nc2ncc3cc(Cl)c([C@@H]4CCN([C@@]5(C)COC[C@H]5O)C[C@H]4F)cc3n2)c1Cl (single isomer, unassigned) [Ex-4.238, (3S,4S)(3S,4S) or (3S,4S)(3R,4R) or (3R,4R)(3S,4S) or (3R,4R)(3R,4R) 4-(4-{6-chloro-2-[(5-chloro-1-methyl-1H-pyrazol-4-yl)amino]quinazolin-7-yl}-3-fluoropiperidin-1-yl)-4-methyloxolan-3-ol] |  | 7.40
FC(F)n1cc(Nc2ncc3cc(Cl)c(C4CCN(C5COC5)CC4)cc3n2)cn1 [Ex-4.18, 6-chloro-N-[1-(difluoromethyl)-1H-pyrazol-4-yl]-7-[1-(oxetan-3-yl)piperidin-4-yl]quinazolin-2-amine] |  | 9.16
Clc1cc2cnc(Nc3cnn(C4CCC4)c3Cl)nc2cc1C1CCN(C2COC2)CC1 [Ex-4.15, 6-chloro-N-(5-chloro-1-cyclobutyl-1H-pyrazol-4-yl)-7-[1-(oxetan-3-yl)piperidin-4-yl]quinazolin-2-amine] |  | >9.20
Cn1nc(C(F)(F)F)cc1Nc1ncc2cc(Cl)c(C3CCN([C@@H]4COC[C@@H]4O)CC3)cc2n1 (single isomer, unassigned) [Ex-1.24, (3S,4S) or (3R,4R) 4-[4-(6-chloro-2-{[1-methyl-3-(trifluoromethyl)-1H-pyrazol-5-yl]amino}quinazolin-7-yl)piperidin-1-yl]oxolan-3-ol] |  | 8.58
Cc1cc2cnc(Nc3cnn(CC(C)(C)O)c3Cl)nc2cc1[C@H]1CCN(C2COC2)C[C@@H]1F (single isomer, unassigned) [Ex-4.83, (3S,4S) or (3R,4R) 1-[5-chloro-4-({7-[3-fluoro-1-(oxetan-3-yl)piperidin-4-yl]-6-methylquinazolin-2-yl}amino)-1H-pyrazol-1-yl]-2-methylpropan-2-ol] |  | 9.14
Cc1cc2cnc(Nc3cnn(CC(C)(C)O)c3Cl)nc2cc1C1CCN(C2COC2)CC1 [Ex-4.80, 1-[5-chloro-4-({6-methyl-7-[1-(oxetan-3-yl)piperidin-4-yl]quinazolin-2-yl}amino)-1H-pyrazol-1-yl]-2-methylpropan-2-ol] |  | 8.87
N#CC1CCC(N2CC[C@@H](c3cc4nc(Nc5cnn(C6CC6)c5Cl)ncc4cc3Cl)[C@H](F)C2)C1 (single isomer, unassigned) [Ex-4.110, (1R,3S)-3-((3S,4S) or (1S,3R)-3-((3S,4S) or (1R,3R)-3-((3S,4S) or (1S,3S)-3-((3S,4S) or (1R,3S)-3-((3R,4R) or (1S,3R)-3-((3R,4R) or (1R,3R)-3-((3R,4R) or 1S,3S)-3-((3R,4R) 4-(6-chloro-2-((5-chloro-1-cyclopropyl-1H-pyrazol-4-yl)amino)quinazolin-7-yl)-3-fluoropiperidin-1-yl)cyclopentane-1-carbonitrile] |  | 8.73
FC1COCC1N1CC[C@@H](c2cc3nc(Nc4cnn(C5CC5(F)F)c4Cl)ncc3cc2Cl)C(F)C1 (stereo partly shown) [Ex-7.1] |  | 9.01
Cc1cc2cnc(Nc3cnn(C4CC4)c3Cl)nc2cc1[C@@H]1CCN(C2COCC2F)C[C@H]1F (single isomer, unassigned) [Ex-7.9, (3S,4R)(3S,4S) or (3R,4S)(3S,4S) or (3R,4R)(3S,4S) or (3S,4S)(3S,4S) or (3S,4R)(3R,4R) or (3R,4S)(3R,4R) or (3R,4R)(3R,4R) or (3S,4S)(3R,4R) N-(5-chloro-1-cyclopropyl-1H-pyrazol-4-yl)-7-[3-fluoro-1-(4-fluorooxolan-3-yl)piperidin-4-yl]-6-methylquinazolin-2-amine] |  | 9.04
CCN1CCC(c2cc3nc(Nc4cnn(CC(C)(C)O)c4Cl)ncc3cc2Cl)CC1 [Ex-4.97, 1-(5-chloro-4-{[6-chloro-7-(1-ethylpiperidin-4-yl)quinazolin-2-yl]amino}-1H-pyrazol-1-yl)-2-methylpropan-2-ol] |  | 8.57
Cc1cc2cnc(Nc3cnn(C)c3C)nc2cc1[C@@H]1CCN([C@@H]2COC[C@@H]2O)C[C@H]1F (single isomer, unassigned) [Ex-4.257, (3S,4S)(3S,4S) or (3S,4S)(3R,4R) or (3R,4R)(3S,4S) or (3R,4R)(3R,4R) 4-(4-(2-((1,5-dimethyl-1H-pyrazol-4-yl)amino)-6-methylquinazolin-7-yl)-3-fluoropiperidin-1-yl)tetrahydrofuran-3-ol] |  | >9.20
COCC12CC(n3ncc(Nc4ncc5cc(Cl)c(C6CCN(C7COC7)CC6)cc5n4)c3C)(C1)C2 [Ex-2.31, 6-chloro-N-{1-[3-(methoxymethyl)bicyclo[1.1.1]pentan-1-yl]-5-methyl-1H-pyrazol-4-yl}-7-[1-(oxetan-3-yl)piperidin-4-yl]quinazolin-2-amine] |  | >9.20
